Measured values: the NIST ThermoML archive (doi:10.1007/s10765-007-0346-0)
Numbers after ± are expanded uncertainties.

Experiments:
[1] = 101.33 kPa, Liquid, Capillary tube (Ostwald / Ubbelohde) method
[2] = xn = mol fraction of the nth substance listed; conditions: 101 kPa, Liquid, Capillary tube (Ostwald / Ubbelohde) method

COC(C)(C)C [2-methoxy-2-methylpropane]
[1]
Conditions | kinematic viscosity [m2/s]
283.15 K | 5.191e-07 ± 3.7e-09
298.15 K | 4.529e-07 ± 3.3e-09
313.15 K | 3.961e-07 ± 3e-09

COC(C)(C)C [2-methoxy-2-methylpropane] + CCC(C)CC
[2], x1 = 1
Conditions | kinematic viscosity [m2/s]
283.15 K | 5.191e-07 ± 3.8e-09
298.15 K | 4.529e-07 ± 3.4e-09
313.15 K | 3.961e-07 ± 3.1e-09

COC(C)(C)C [2-methoxy-2-methylpropane] + CCCCCC
kinematic viscosity [m2/s], [2]
Conditions | 283.15 K | 298.15 K | 313.15 K
x1 = 0.0479 | 5.097e-07 ± 4.4e-09 | 4.478e-07 ± 3.9e-09 | 4.017e-07 ± 3.6e-09
x1 = 0.0974 | 5.074e-07 ± 4.3e-09 | 4.465e-07 ± 3.9e-09 | 3.994e-07 ± 3.5e-09
x1 = 0.1983 | 5.034e-07 ± 4.2e-09 | 4.442e-07 ± 3.8e-09 | 3.96e-07 ± 3.4e-09
x1 = 0.2988 | 5.004e-07 ± 4.1e-09 | 4.427e-07 ± 3.7e-09 | 3.932e-07 ± 3.4e-09
x1 = 0.3979 | 4.99e-07 ± 4e-09 | 4.418e-07 ± 3.6e-09 | 3.91e-07 ± 3.3e-09
x1 = 0.4975 | 4.99e-07 ± 3.9e-09 | 4.413e-07 ± 3.5e-09 | 3.897e-07 ± 3.2e-09
x1 = 0.5974 | 4.996e-07 ± 3.8e-09 | 4.419e-07 ± 3.5e-09 | 3.895e-07 ± 3.2e-09
x1 = 0.6968 | 5.025e-07 ± 3.8e-09 | 4.431e-07 ± 3.5e-09 | 3.895e-07 ± 3.1e-09
x1 = 0.7911 | 5.059e-07 ± 3.8e-09 | 4.45e-07 ± 3e-09 | 3.913e-07 ± 3.1e-09
x1 = 0.8976 | 5.125e-07 ± 3.8e-09 | 4.484e-07 ± 3.4e-09 | 3.926e-07 ± 3.1e-09
x1 = 0.9486 | 5.147e-07 ± 3.8e-09 | 4.505e-07 ± 3.4e-09 | 3.94e-07 ± 3.1e-09

COC(C)(C)C [2-methoxy-2-methylpropane] + CCCCCCC
kinematic viscosity [m2/s], [2]
Conditions | 283.15 K | 298.15 K | 313.15 K
x1 = 0.0431 | 6.606e-07 ± 5.5e-09 | 5.683e-07 ± 4.9e-09 | 4.926e-07 ± 4.3e-09
x1 = 0.0987 | 6.512e-07 ± 5.4e-09 | 5.599e-07 ± 4.7e-09 | 4.862e-07 ± 4.2e-09
x1 = 0.1892 | 6.353e-07 ± 5.2e-09 | 5.461e-07 ± 4.5e-09 | 4.767e-07 ± 4e-09
x1 = 0.2958 | 6.168e-07 ± 4.9e-09 | 5.3e-07 ± 4.3e-09 | 4.658e-07 ± 3.9e-09
x1 = 0.3844 | 6.03e-07 ± 4.7e-09 | 5.169e-07 ± 4.2e-09 | 4.569e-07 ± 3.7e-09
x1 = 0.4986 | 5.845e-07 ± 4.5e-09 | 5.012e-07 ± 4e-09 | 4.454e-07 ± 3.6e-09
x1 = 0.6007 | 5.7e-07 ± 4.3e-09 | 4.881e-07 ± 3.8e-09 | 4.347e-07 ± 3.4e-09
x1 = 0.6999 | 5.567e-07 ± 4.2e-09 | 4.777e-07 ± 3.7e-09 | 4.246e-07 ± 3.3e-09
x1 = 0.7998 | 5.421e-07 ± 4e-09 | 4.68e-07 ± 3.6e-09 | 4.144e-07 ± 3.2e-09
x1 = 0.8997 | 5.298e-07 ± 3.9e-09 | 4.604e-07 ± 3.5e-09 | 4.047e-07 ± 3.1e-09
x1 = 0.9499 | 5.241e-07 ± 3.8e-09 | 4.566e-07 ± 3.4e-09 | 4.004e-07 ± 3.1e-09

CCC(C)CC [3-methylpentane]
[1]
Conditions | kinematic viscosity [m2/s]
283.15 K | 4.928e-07 ± 4.2e-09
298.15 K | 4.366e-07 ± 3.8e-09
313.15 K | 3.881e-07 ± 3.5e-09

CCC(C)CC [3-methylpentane] + CC(C)OC(C)C
kinematic viscosity [m2/s], [2]
Conditions | 283.15 K | 298.15 K | 313.15 K
x2 = 0 | 4.928e-07 ± 4.3e-09 | 4.366e-07 ± 3.9e-09 | 3.881e-07 ± 3.5e-09
x2 = 0.0498 | 4.914e-07 ± 4.3e-09 | 4.364e-07 ± 3.9e-09 | 3.872e-07 ± 3.5e-09
x2 = 0.1011 | 4.903e-07 ± 4.3e-09 | 4.355e-07 ± 3.9e-09 | 3.861e-07 ± 3.5e-09
x2 = 0.201 | 4.886e-07 ± 4.3e-09 | 4.348e-07 ± 3.9e-09 | 3.847e-07 ± 3.5e-09
x2 = 0.3018 | 4.877e-07 ± 4.3e-09 | 4.342e-07 ± 3.9e-09 | 3.837e-07 ± 3.5e-09
x2 = 0.4014 | 4.871e-07 ± 4.2e-09 | 4.339e-07 ± 3.9e-09 | 3.83e-07 ± 3.5e-09
x2 = 0.501 | 4.876e-07 ± 4.3e-09 | 4.338e-07 ± 3.9e-09 | 3.827e-07 ± 3.5e-09
x2 = 0.5993 | 4.883e-07 ± 4.3e-09 | 4.344e-07 ± 3.9e-09 | 3.831e-07 ± 3.5e-09
x2 = 0.6973 | 4.897e-07 ± 4.3e-09 | 4.352e-07 ± 3.9e-09 | 3.833e-07 ± 3.5e-09
x2 = 0.8014 | 4.912e-07 ± 4.3e-09 | 4.366e-07 ± 3.9e-09 | 3.842e-07 ± 3.5e-09
x2 = 0.8997 | 4.934e-07 ± 4.3e-09 | 4.377e-07 ± 3.9e-09 | 3.849e-07 ± 3.5e-09
x2 = 0.9501 | 4.947e-07 ± 4.3e-09 | 4.385e-07 ± 3.9e-09 | 3.854e-07 ± 3.5e-09

CCC(C)CC [3-methylpentane] + CCCCOCCCC
kinematic viscosity [m2/s], [2]
Conditions | 283.15 K | 298.15 K | 313.15 K
x2 = 0.0498 | 5.151e-07 ± 4.4e-09 | 4.505e-07 ± 3.9e-09 | 4.026e-07 ± 3.6e-09
x2 = 0.1011 | 5.383e-07 ± 4.6e-09 | 4.655e-07 ± 4e-09 | 4.176e-07 ± 3.7e-09
x2 = 0.1884 | 5.796e-07 ± 4.9e-09 | 4.975e-07 ± 4.3e-09 | 4.427e-07 ± 3.9e-09
x2 = 0.2989 | 6.32e-07 ± 5.3e-09 | 5.415e-07 ± 4.6e-09 | 4.712e-07 ± 4.1e-09
x2 = 0.4033 | 6.843e-07 ± 5.6e-09 | 5.846e-07 ± 4.9e-09 | 5.031e-07 ± 4.3e-09
x2 = 0.4999 | 7.344e-07 ± 6e-09 | 6.244e-07 ± 5.2e-09 | 5.374e-07 ± 4.6e-09
x2 = 0.5992 | 7.877e-07 ± 6.4e-09 | 6.669e-07 ± 5.5e-09 | 5.73e-07 ± 4.8e-09
x2 = 0.7016 | 8.46e-07 ± 6.8e-09 | 7.116e-07 ± 5.8e-09 | 6.088e-07 ± 5.1e-09
x2 = 0.799 | 9.03e-07 ± 7.2e-09 | 7.548e-07 ± 6.1e-09 | 6.442e-07 ± 5.3e-09
x2 = 0.9001 | 9.657e-07 ± 7.7e-09 | 8.021e-07 ± 6.5e-09 | 6.804e-07 ± 5.6e-09
x2 = 0.9496 | 9.979e-07 ± 7.9e-09 | 8.257e-07 ± 6.7e-09 | 6.992e-07 ± 5.7e-09
